Assay results published in patent US11883407B2, “Medicament for the treatment of chronic cough” (Shionogi & Co., Ltd., priority 2018, dated 2024).

Experiments:
human P2X2/3 receptor = biological target: T1, human P2X2/3 receptor (Homo sapiens, UniProt P56373+Q9UBL9); assay: Evaluation of human P2X2/3 receptor inhibitory activity (Fluo-3 fluorescence, C6BU-1 cells, α,β-methylene ATP 6 μM)
T1 sequence (Q9UBL9 1-471): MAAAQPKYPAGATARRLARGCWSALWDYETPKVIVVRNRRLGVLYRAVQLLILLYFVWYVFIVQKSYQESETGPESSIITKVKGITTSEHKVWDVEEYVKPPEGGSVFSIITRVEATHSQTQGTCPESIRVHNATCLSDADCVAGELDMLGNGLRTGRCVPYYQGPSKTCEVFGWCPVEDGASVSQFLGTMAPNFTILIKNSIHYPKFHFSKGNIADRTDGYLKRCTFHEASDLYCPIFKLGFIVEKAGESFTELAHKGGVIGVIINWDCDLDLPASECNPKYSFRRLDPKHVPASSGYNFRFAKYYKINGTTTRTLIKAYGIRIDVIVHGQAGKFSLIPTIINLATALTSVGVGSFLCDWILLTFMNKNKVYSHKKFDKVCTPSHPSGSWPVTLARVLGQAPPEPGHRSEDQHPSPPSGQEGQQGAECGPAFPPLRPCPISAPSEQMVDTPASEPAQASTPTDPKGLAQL
T1 sequence (P56373 1-397): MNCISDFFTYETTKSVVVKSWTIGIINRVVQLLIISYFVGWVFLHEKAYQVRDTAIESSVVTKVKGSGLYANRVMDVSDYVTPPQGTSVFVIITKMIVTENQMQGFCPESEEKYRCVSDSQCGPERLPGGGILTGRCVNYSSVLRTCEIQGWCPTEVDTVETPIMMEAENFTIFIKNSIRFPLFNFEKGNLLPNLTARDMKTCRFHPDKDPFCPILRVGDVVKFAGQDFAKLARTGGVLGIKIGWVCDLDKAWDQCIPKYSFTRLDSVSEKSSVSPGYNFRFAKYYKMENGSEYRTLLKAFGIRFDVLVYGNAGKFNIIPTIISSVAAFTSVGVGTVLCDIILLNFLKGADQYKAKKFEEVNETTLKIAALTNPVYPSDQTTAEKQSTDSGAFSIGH

[1] = tested on: patients with refractory/unexplained chronic cough; assay: Phase II double-blind cross-over comparative study: cough frequency and Leicester Cough Questionnaire; assay type: in vivo, human
Experimental: A Phase II double-blind cross-over comparative study was conducted in patients with refractory/unexplained chronic cough.
In patients with refractory/unexplained chronic cough, the placebo-adjusted change from baseline in the number of coughs per hour during daytime (7 am to 7:59 pm, which means right before 8:00 pm) after 2 weeks of administration of the compound represented by Formula (I), and its significance were evaluated. Similarly, the placebo-adjusted change from baseline in the number of coughs per hour in 24 hours after administration of the compound represented by Formula (I) and its significance were also evaluated.
The placebo-adjusted change is defined by the following equation.
The trial was conducted as a placebo-controlled, multicenter, randomized, double-blind, cross-over comparative study. The study consists of a screening phase (1 to 4 weeks), a first treatment phase (15 days), a drug holiday (2 to 3 weeks), a second treatment phase (15 days) and a follow-up phase (1 week).
Subjects (20 females, 11 males, mean age of 50.0 years) were randomly assigned to either the group receiving the compound according to Formula (I) first or the group receiving the placebo first. The subjects in the group receiving the compound according to Formula (I) first received orally tablets containing 150 mg of the compound according to Formula (I) (50 mg, 3 tablets), and the subjects in the group receiving the placebo first received orally placebo tablets (3 tablets), from the day following the first treatment phase once daily in the morning for 2 weeks.
(For the number of coughs per hour during daytime in each of the first and second treatment phases, the mixed effect model was applied, with the common logarithms of the ratio to the baseline after 2 weeks of administration as the responses, the investigational drugs, the administration groups (group receiving the compound represented by Formula (I) first and group receiving the placebo first), and the phases as the fixed effects, the individuals as the random effects, and the common logarithms of the number of coughs per hour at baseline as the covariates.) (Results) A comparison (full analysis population) of the change in the number of coughs per hour in 24 hours is shown in Table 4.
(For the number of coughs per hour in 24 hours in each of the first and second treatment phases, the mixed effect model was applied, with the common logarithms of the ratio to the baseline after 2 weeks of administration as the responses, the investigational drugs, administration groups (group receiving the compound represented by Formula (I) first and group receiving the placebo first), and phases as the fixed effects, the individuals as the random effects, and the common logarithms of the number of coughs per hour at baseline as the covariates.) (Results) A comparison (full analysis population) of the total change in the sum of the three domains of the Leicester Cough Questionnaire [Japanese version] is shown in Table 5.
(For the change from baseline in the total score of the three domains of the Leicester Cough Questionnaire [Japanese version] at the end or discontinuation of each of the first and second treatment phases, the mixed effect model was applied, with the changes from the baseline as the responses, the investigational drugs, phases, and administration groups (group receiving the compound represented by Formula (I) first and group receiving the placebo first) as the fixed effects, the individuals as the random effects, and the total scores of the three domains of the Leicester Cough Questionnaire [Japanese version] at baseline as the covariates.)

[2] = Phase I single dose and food effect study (safety, tolerability)
clinical = conditions: human, plasma, oral
[3] = 150 mg once daily, 2 weeks, from baseline, full analysis population
[4] = 150 mg once daily, 2 weeks, full analysis population

## C[C@@H](Cn1c(=O)[nH]/c(=N\c2ccc(Oc3ccccn3)cc2)n(Cc2ccc(Cl)cc2)c1=O)C(=O)O [compound represented by Formula (I), (2S)-3-(3-[(4-Chlorophenyl)methyl]-2,6-dioxo-4-{[4-(pyridin-2-yloxy)phenyl]amino}-3,6-dihydro-1,3,5-triazin-1(2H)-yl)-2-methyl-propanoic acid]
Human P2X2/3 receptor
  IC50: 1100 nM
[1]; 150 mg once daily vs placebo
  Drug differences, total score of the three domains of the Leicester Cough Questionnaire: 1.40
[1]; 150 mg once daily vs placebo, significant difference
  difference between investigational drug groups in total score of the three domains of the Leicester Cough Questionnaire: 1.40 points
[1]; 150 mg once daily, 2 weeks
  placebo-adjusted rate of decrease in the number of coughs per hour during daytime: 31.6%
[1]; 150 mg once daily, 2 weeks, from baseline
  Estimated amount of change, total score of the three domains of the Leicester Cough Questionnaire: 2.46
[1]; [3]
  Estimated rate of change in number of coughs per hour during daytime: −54.1%
  Estimated rate of change in number of coughs per hour in 24 hours: −52.6%
[1]; [4]
  Rate of change adjusted by placebo, number of coughs per hour during daytime: −31.6%
  Rate of change adjusted by placebo, number of coughs per hour in 24 hours: −30.9%
[1]; 150 mg once daily, 2 weeks, significant difference
  placebo-adjusted rate of decrease in the number of coughs per hour in 24 hours: 30.9%
[2]; Part A and Part B, healthy adult males
  deaths, serious adverse events, adverse events leading to discontinuation of administration: no deaths, serious adverse events, or adverse events leading to discontinuation of administration
[2]; all Phase I studies conducted (single dose/food effect and repeat dose)
  taste-related adverse events or side effects: No taste-related adverse events or side effects were observed
[2]; single dose 3, 10, 30, 100, 300 and 450 mg groups
  dysgeusia or any taste-related disorder as adverse event: no dysgeusia or any taste-related disorder was observed
clinical; 3 mg
  concentration at 24 h: 15.2 ng/mL
clinical; 10 mg
  concentration at 24 h: 50.7 ng/mL
clinical; 30 mg
  concentration at 24 h: 134 ng/mL
clinical; 100 mg
  concentration at 24 h: 424 ng/mL
clinical; 300 mg
  concentration at 24 h: 1840 ng/mL
clinical; 450 mg
  concentration at 24 h: 2680 ng/mL
